Experimental data taken from article PMC6934184, “Selective DNA-PKcs inhibition extends the therapeutic index of localized radiotherapy and chemotherapy” (The Journal of Clinical Investigation, 2019).

Molecular target: T1, KIT V654A (Homo sapiens, UniProt P10721, V654A)
T1 construct: purchased Thermo Fisher Scientific (Life Technologies) SelectScreen
Test: SelectScreen LanthaScreen
Assay type: binding
Conditions: read-out: % displacement
Procedure, shortened: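 NU5455 was profiled across the SelectScreen Broad panel of kinase activity and binding assays. Z'LYTE reactions such as CSF1R ran at apparent Km ATP, while the Adapta CAMK1 assay used ATP listed as 10. Values are given as percent.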

T1 sequence (P10721 26-976 V654A): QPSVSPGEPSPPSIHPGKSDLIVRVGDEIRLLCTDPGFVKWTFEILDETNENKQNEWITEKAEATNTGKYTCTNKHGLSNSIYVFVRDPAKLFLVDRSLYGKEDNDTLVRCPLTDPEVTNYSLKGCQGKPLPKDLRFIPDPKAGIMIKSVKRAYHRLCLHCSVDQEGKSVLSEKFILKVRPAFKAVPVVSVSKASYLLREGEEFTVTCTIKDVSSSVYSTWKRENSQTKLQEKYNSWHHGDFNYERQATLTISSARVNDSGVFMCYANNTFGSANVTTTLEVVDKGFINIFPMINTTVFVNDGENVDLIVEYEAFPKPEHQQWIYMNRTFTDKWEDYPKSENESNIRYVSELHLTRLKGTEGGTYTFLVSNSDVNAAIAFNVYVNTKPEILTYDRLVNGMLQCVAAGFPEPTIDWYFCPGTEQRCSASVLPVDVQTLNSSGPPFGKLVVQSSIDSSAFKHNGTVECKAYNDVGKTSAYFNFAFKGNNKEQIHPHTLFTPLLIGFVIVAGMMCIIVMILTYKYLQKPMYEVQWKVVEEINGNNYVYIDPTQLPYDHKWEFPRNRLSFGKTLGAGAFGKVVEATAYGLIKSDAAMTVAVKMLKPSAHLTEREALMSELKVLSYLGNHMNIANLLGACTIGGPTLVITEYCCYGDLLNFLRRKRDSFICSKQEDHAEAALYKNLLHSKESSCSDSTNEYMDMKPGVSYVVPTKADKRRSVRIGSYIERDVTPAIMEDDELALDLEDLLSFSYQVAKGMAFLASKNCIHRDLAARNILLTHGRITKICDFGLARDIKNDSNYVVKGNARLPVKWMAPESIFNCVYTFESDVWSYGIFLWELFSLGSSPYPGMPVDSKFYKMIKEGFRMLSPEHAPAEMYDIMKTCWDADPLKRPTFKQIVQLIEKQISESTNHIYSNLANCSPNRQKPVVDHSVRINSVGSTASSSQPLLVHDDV

SMILES: CN(C(=O)CN1CCOCC1)c1ccc2sc3c(-c4cccc5c(=O)cc(N6CC7CCC(C6)O7)oc45)cccc3c2c1 [NU5455]
- inhibition at 1 µM: 8.1%
